Source: US7378443B2, “Fatty acid analogues for the treatment of cancer” (Thia Medica, AS, priority 2000, dated 2008)
“Also recorded” adds a separate entry of the source.

What was measured:
Escherichia coli = test: tests for mutagenic activity in bacterial strains; type: cell-based; conditions: 3-1000 mg/plate (TTA), 2-5000 mg/plate (TSA)
Protocol: (§1) Covance Laboratories Limited, England, has performed tests for mutagenic activity. […] Furthermore, TTA was not mutagenic when tested in mouse lymphoma cells […] L5178Y.
(§2) The concentration of the compounds tested in S. typhimurium and E. coli were 3-1000 mg/plate (TTA) 2-5000 mg/plate (TSA). In mouse lymphoma cells, L5178Y, the concentration was 2,5-50 mg/ml.

Salmonella typhimurium = test: tests for mutagenic activity in bacterial strains; type: cell-based; conditions: 3-1000 mg/plate (TTA), 2-5000 mg/plate (TSA)
Protocol: as §1, §2

[1] = system: Chinese hamster ovary cells; test: chromosomal aberrations in cultured Chinese hamster ovary cells; type: cell-based; conditions: doses tested 12-140 mg/ml
[2] = 28 days toxicity study in dogs (GLP); type: in vivo
From the text: A 28 days toxicity study in dogs according to GLP guidelines has been performed by Corning Hazleton (Europe), England. […] Some lipid related parameters were lowered in the animals given high dosages. This is consistent with the pharmacological activity of TTA.

[3] = system: mouse lymphoma cells, L5178Y; test: mutagenicity test in mouse lymphoma cells; type: cell-based; conditions: 2,5-50 mg/ml
Protocol: as §1, §2

D-54MG cells = test: cell migration out from attached spheroids; type: cell-based, human; conditions: D-54MG spheroids, 100 μM, 3 days of culture, DMEM; data not shown
Protocol: (§3) To compare the effect of the different fatty acid analogues on tumour spheroid growth, both D-54Mg and GaMg spheroids were transferred individually into 16 mm 24-well dishes base coated with 0.5 ml 0.75% DMEM-agar. D-54Mg and GaMg are human cell lines. The D-54Mg cell line was derived from a mixed anaplastic glioma and was kindly supplied by Dr. Darell D. Bigner, Duke University, Durham, N.C. The GaMg cell line was established in our laboratory and has been described in detail elsewhere (Bjerkvik et al.: Anticancer research 1998: vol 8, p 797-803). The spheroids were divided into 5 groups with 4 spheroids in each group. Four groups were treated with the different fatty acid analogues at a final fatty acid concentration of either 100 or 250 μM. […] The volume of the overlay suspension was 1.0 ml. The size of the spheroids were determined every second day be measuring two orthogonal diameters using an inverted phase contrast microscope with a calibrated reticle in the eye-piece. This was done during a 14-day period.
(§4) The effect of the fatty acid analogues on cell migration was studied by measuring the ability of cells to migrate out from spheroids that had attached to a plastic surface. […] The size of the outgrowth area was then determined by using a Kontron morphometry system (Kontron, Eching, Germany). […]

GaMg cells = test: cell migration out from attached spheroids; type: cell-based, human; conditions: 100 μM, 3 days of culture, DMEM, data not shown
Protocol: as §3, §4

BT4Cn tumours = test: survival of rats with intracranially implanted BT4Cn tumours; type: in vivo
Protocol: Mail Norwegian brown rats, BD IX, were used as described in example 5. The TTA was administered by oro-gastric intubation.
The tumour was implanted by stereotactical transplantation. The rats were anaesthetised with 0.4 ml Equithesin/100 g body weight. A skin incision was made, blood was removed by H2O2 and the scull was trephined using a dental drill.
The burr hole was localized 3.3 mm posterior to the coronal suture and 2.5 mm lateral to the sagittal suture.
Cells were harvested and counted as described above (Section 5.3), and then diluted in DPBS to a final concentration on 20.000 cells/μl. 2 μl cell suspension was injected with a Hamilton syringe with a cone-tipped 0.7 mm needle at a depth of 2.8 mm. The skin was closed with steel staples, and the animals were returned to their cages.

Compound	induction of mutations (Escherichia coli)	induction of mutations (Salmonella typhimurium)	chromosomal aberrations [1]	lipid related parameters ([2]; animals given high dosages)	tolerability ([2]; oral administration, dose levels up to 500 mg/kg/day)	evidence of toxicity ([2]; oral, dose levels of 50 or 500 mg/day/kg)	mutagenicity [3]	migratory capacity (D-54MG cells)	migratory capacity (GaMg cells)	overall survival (BT4Cn tumours)
CCCCCCCCCCCCCC[Se]CC(=O)O [TSA, tetradecylselenioacetic acid]	did not induce mutations; also recorded: not to be mutagenic	did not induce mutations; also recorded: not to be mutagenic	no aberrations were induced							
Tetradecylthioacetic acid [TTA]	did not induce mutations	did not induce mutations		lowered	generally well tolerated	no evidence of toxicity	not mutagenic	severely inhibited	severely inhibited	substantially increased
